Laboratory results reported in patent publication US20260001828A1, “BIOBASED SURFACTANT AND ANTIOXIDANT” (BLOOM BIORENEWABLES SA, priority 2022, published 2026).

Legend:
[1] = Surface tension by pendant drop method, water/air interface; type: physicochemical
Experimental: Surface tension measurements were performed using the pendant drop method by Kruss EasyDrop Standard drop shape analysis system. […]

[2] = DPPH free radical antioxidant activity test (UV/visible spectrophotometry, 517 nm); type: biochemical
Experimental: The antioxidant activity is assessed by measuring the capacity of the compound to react with a free radical (here 2,2-diphenyl-1-picrylhydrazyl also known as DPPH). […] Butylated hydroxytoluene (BHT) and vitamin E were used as […] substances (positive control) and glycerol as negative control (see FIGS. 3 and 4).

Row | Water/air interface (surface tension) ([1]; concentration 0.10 wt %) [mN/m] | Compound | inhibition rate ([2]; concentration of 5 μg/mL) [%] | inhibition rate ([2]; concentration of 10 μg/mL) [%] | inhibition rate ([2]; concentration of 50 μg/mL) [%] | further results
1 | 45.1 | CCCc1cc(OC)c([O-])c(OC)c1.[Na+] [PSNa, 4-propylsyringol sodium salt] | – | – | – | Water/air interface (surface tension) ([1]; concentration 0.50 wt %): 39.8 mN/m; Water/air interface (surface tension) ([1]; concentration 1.00 wt %): 33.8 mN/m
2 | – | CCCCC(CC)COC(=O)CC(C(=O)OCC(CC)CCCC)S(=O)(=O)[O-].[Na+] (centres unmarked) [DOSS, Dioctyl Sodium Sulfosuccinate] | – | – | – | Water/air interface (surface tension) ([1]; concentration 0.20 wt %): 51 mN/m
3 | – | sodium lauryl ether sulfate [SLES] | – | – | – | Water/air interface (surface tension) ([1]; concentration 0.02 wt %): 33.8 mN/m
4 | 33 | Sodium linear alkylbenzenesulfonate [NaLAS] | – | – | – | –
5 | – | Cc1cc(C(C)(C)C)c(O)c(C(C)(C)C)c1 [BHT, Butylated hydroxytoluene] | 32 | 54 | 85 | –
6 | – | CCCCCCCCCCCCOS(=O)(=O)[O-].[Na+] [SLS, sodium lauryl sulfate] | – | – | – | Water/air interface (surface tension) ([1]; concentration 0.20 wt %): 35.4 mN/m
7 | – | nonylphenol ethoxylate [NPE] | – | – | – | Water/air interface (surface tension) ([1]; concentration 0.02 wt %): 36 mN/m
8 | – | vitamin E | 28 | 61 | 84 | –
9 | 48.3 | CCCc1cc(OC)c(O)c(OC)c1 [4-propylsyringol] | 65 | 84 | 85 | Water/air interface (surface tension) ([1]; concentration 0.50 wt %): 34.9 mN/m; Water/air interface (surface tension) ([1]; concentration 1.00 wt %): 32.3 mN/m
